Test results as given in patent US11660339B2, “Methods of treating cancer using compositions of antibodies and carrier proteins with antibody pretreatment” (Mayo Foundation for Medical Education and Research, priority 2015, dated 2023).

Tested on: A375 human melanoma cells
Assay: A375 human melanoma xenograft in athymic nude mice: tumor volume and survival
Format: in vivo
From the text: Data is represented as tumor volume in mm^3.
Survival was again assessed at day 40.

bevacizumab
therapeutic effect in the experiment (in words) (12 mg/kg BEV alone, 1.2 mg/kg BEV pretreatment before AB160): not therapeutic
Percent Alive on day 15 (day 15 post treatment, 12 mg/kg BEV, 30 mg/kg ABX, AB160, or 1.2 mg/kg BEV 24 hr before AB160): 0%
median survival (survival assessed at day 40): 7 days
